Measured values as given in patent US20240425491A1, “HETEROARYL COMPOUNDS USEFUL IN THE TREATMENT OF COGNITIVE DISORDERS” (University College Cardiff Consultants Limited, priority 2021, published 2024).
pKi: −log10 of the molar value. Structures can show the parent of a compound that is named as a salt.

Columns and labels:
[1] = biological target: T1, human α5β3γ2L GABAA receptors in HEK293 cells (Homo sapiens, UniProt P18507+P31644); experiment: In vitro electrophysiological recording assay (α5-GABAAR relative efficacy), SyncroPatch; type: cell-based; details: GABA EC10-20
T1 construct: expressed in transfected cells
T1 sequence (P31644 32-462): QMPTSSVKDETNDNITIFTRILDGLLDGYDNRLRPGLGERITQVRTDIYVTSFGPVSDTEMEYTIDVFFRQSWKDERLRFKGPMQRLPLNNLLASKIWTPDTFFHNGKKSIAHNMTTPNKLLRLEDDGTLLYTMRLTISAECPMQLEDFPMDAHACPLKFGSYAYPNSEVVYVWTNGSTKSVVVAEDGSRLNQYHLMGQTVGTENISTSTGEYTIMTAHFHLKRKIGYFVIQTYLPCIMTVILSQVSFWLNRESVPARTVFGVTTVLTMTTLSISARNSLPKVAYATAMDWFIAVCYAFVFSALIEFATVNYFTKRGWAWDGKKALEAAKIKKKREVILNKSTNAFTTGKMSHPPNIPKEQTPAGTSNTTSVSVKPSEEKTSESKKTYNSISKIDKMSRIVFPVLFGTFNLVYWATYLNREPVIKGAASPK
T1 sequence (P28472 26-473 partner): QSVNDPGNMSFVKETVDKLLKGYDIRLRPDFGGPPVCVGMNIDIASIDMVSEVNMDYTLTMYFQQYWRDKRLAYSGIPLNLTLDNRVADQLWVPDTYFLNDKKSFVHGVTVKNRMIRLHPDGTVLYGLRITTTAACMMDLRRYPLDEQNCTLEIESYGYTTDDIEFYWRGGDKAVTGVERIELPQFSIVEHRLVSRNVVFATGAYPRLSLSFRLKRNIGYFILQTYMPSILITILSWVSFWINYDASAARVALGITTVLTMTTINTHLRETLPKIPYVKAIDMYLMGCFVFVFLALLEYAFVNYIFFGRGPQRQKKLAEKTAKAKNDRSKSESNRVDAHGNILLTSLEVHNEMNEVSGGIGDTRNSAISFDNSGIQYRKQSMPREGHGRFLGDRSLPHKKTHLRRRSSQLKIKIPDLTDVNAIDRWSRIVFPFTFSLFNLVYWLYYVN
T1 sequence (P18507 40-475): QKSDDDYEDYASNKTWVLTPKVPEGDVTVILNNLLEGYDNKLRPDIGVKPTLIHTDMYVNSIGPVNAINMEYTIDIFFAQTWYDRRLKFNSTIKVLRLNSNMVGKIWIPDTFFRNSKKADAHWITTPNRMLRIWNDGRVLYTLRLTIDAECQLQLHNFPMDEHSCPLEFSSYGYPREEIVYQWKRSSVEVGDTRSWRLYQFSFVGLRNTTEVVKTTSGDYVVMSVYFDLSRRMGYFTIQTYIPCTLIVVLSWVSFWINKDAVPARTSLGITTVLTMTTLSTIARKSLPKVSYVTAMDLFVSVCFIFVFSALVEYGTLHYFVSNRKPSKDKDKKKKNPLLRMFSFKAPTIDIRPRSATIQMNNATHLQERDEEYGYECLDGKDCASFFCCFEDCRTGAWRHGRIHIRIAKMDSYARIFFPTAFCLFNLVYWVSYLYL
From the text: Mouse L(tk^−) cells stably expressing human α1β3γ2, α2β3γ2, α3β3γ2, α5β3γ2 GABAARs generated by transfection of the individual subunits in the dexamethasone-inducible expression vector pMSGneo in mouse L(tk^−) cells (Hadingham et al., 1993, Mol. Pharmacol. 43:970-975 and 1993, Mol. Pharmacol. 44:1211-1218) were used for binding and functional assays. For certain compounds, HEK293 cells stable expressing the human α1β3γ2L, α2β3γ2L, α3β3γ2L and α5β3γ2L GABAA receptors were used to evaluate their functional effects in a SyncroPatch electrophysiology assay.
The efficacy of modulators was evaluated using either the automated patch-clamp platform QPatch16 (Sophion, Copenhagen, Denmark) or the SyncroPatch 384i (Nanion Technologies, Germany). Cells were harvested from flasks by enzymatic dissociation and re-suspended in serum-free medium.
For the Syncropatch recordings, a stacked addition protocol was used, in which GABA was rapidly applied and then washed off from the cell. All experiments were carried out at room temperature (20-22° C.) using a standard whole cell procedure. The currents recorded were acquired at 2 kHz and filtered using a Bessel filter. Whole-cell currents were measured at a holding potential of −80 mV.
For Syncropatch recordings, the extracellular recording solution contained: 140 mM NaCl, 4 mM KCl, 2 mM CaCl2), 1 mM MgCl2, 10 mM HEPES, 5 mM glucose (pH 7.4 and osmolarity of c. 300-310 mOsm/L). The intracellular recording solution contained: 90 mM KCl, 50 mM KF, 1.5 mM MgCl2, 11.1 mM EGTA and 10 mM HEPES (pH 7.2 and osmolarity of c. 300 mOsm/L). 2 mM of NaATP was added to the intracellular solution on the day of testing.
The effects of modulators were evaluated in the presence of a submaximal GABA concentration, giving typically 10-20% activation (GABA EC10-20) of the response elicited by a saturating GABA concentration. For QPatch recordings, to check and ensure baseline current stability before compound addition, five consecutive applications of GABA EC10-20 alone (each application with a 2 s duration, separated by minimum 1 min wash off periods) were performed before compound addition. The test compound was applied using the pipetting system of the QPatch system 1 min at least prior to co-application with GABA EC10-20. For SyncroPatch recordings, GABA EC20 alone was applied three times (1 s long applications, with wash steps in-between) before compound addition. This was followed by a 1-2 min pre-incubation with the test compound and then re-application of GABA EC10-20 in the presence of the compound. Finally, following a further wash step, a saturating concentration of GABA was applied, allowing the accurate evaluation for each cell of the percentage baseline activation elicited by the submaximal GABA applied.
The compounds were first dissolved in DMSO as a 10 mM stock and then further diluted to the testing concentrations so that the final DMSO concentration in the extracellular recording solution was kept constant at 0.1% for the QPatch recordings, or 0.2% for the SyncroPatch recordings.
The % efficacy of modulators was determined from the GABA elicited currents recorded in the presence and absence of the test compound, using the formula:
[((compound peak current−leak)−(GABA peak current−leak))/(GABA peak current−leak)]*100,
where ‘leak’ is the leak baseline current at −65 mV, ‘compound peak current’ is the current elicited by co-application of compound and GABA, and ‘GABA peak current’ is the current elicited by GABA alone during the 5th GABA application. The results were presented as ‘relative efficacy’ for each compound generally at a concentration equal or higher than 100 times their determined Ki. The relative efficacy of a compound was calculated by normalising its efficacy to the efficacy of methyl-6,7-dimethoxy-4-ethyl-beta-carboline-3-carboxylate (DMCM) that was separately determined produced an attenuation of GABA-induced currents of −57±4%, n=5.

[2] = biological target: T2, human recombinant GABAAR containing α5β3γ2 subunits (benzodiazepine site) (Homo sapiens, UniProt P18507+P31644); experiment: In vitro radioligand binding assay (α5-GABAAR Ki); details: inhibition of [3H]Ro15-1788 binding, membranes of L(tk−) cells expressing human α5β3γ2; read-out: α5-GABAAR Ki
T2 construct: expressed in transfected cells; host or cells: mouse L(tk−) cells, dexamethasone-inducible vector pMSGneo
T2 sequence (P31644 32-462): as the sequence (P31644 32-462) above
T2 sequence (P28472 26-473 partner): as the sequence (P28472 26-473 partner) above
T2 sequence (P18507 40-475): as the sequence (P18507 40-475) above
How it was run: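 Membranes from mouse L(tk^−) cells stably expressing human α5β3γ2 GABAAR incubated 1 h at 4° C with 4 nM [^3H]Ro15-1788 and test compound; nonspecific binding with 1 μM TP003. Filter-bound radioactivity counted; Ki from IC50 by Cheng-Prusoff using measured Kd.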

[3] = biological target: T3, human α5β3γ2 GABAARs in mouse L(tk−) cells (Homo sapiens, UniProt P18507+P31644); experiment: In vitro electrophysiological recording assay (α5-GABAAR relative efficacy), QPatch; type: cell-based; details: GABA EC10-20
T3 construct: expressed in transfected cells; host or cells: mouse L(tk−) cells, dexamethasone-inducible vector pMSGneo
T3 sequence (P31644 32-462): as the sequence (P31644 32-462) above
T3 sequence (P28472 26-473 partner): as the sequence (P28472 26-473 partner) above
T3 sequence (P18507 40-475): as the sequence (P18507 40-475) above
How it was run: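 Whole-cell QPatch recordings at 20-22° C, −65 mV holding, in dexamethasone-induced (1 μM, 24 h) L(tk−) cells. Compound pre-applied ≥1 min, then co-applied with GABA EC10-20; percentage change in leak-corrected peak current, taken at ≥100× Ki, normalised to DMCM efficacy; 0.1% DMSO final.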

COc1nc(-c2cnc(CN3CCOCC3)nc2)ccc1NC(=O)c1c(-c2ccccc2)noc1C [Example 181, N-[2-Methoxy-6-[2-(morpholinomethyl)pyrimidin-5-yl]-3-pyridyl]-5-methyl-3-phenyl-isoxazole-4-carboxamide]
α5-GABAAR Relative Efficacy (to DMCM), SyncroPatch ([1]; Conc 0.1 μM): −1.05
pKi [2]: 8.72

COc1nc(-c2cnc(CN)nc2)ccc1NC(=O)c1c(-c2ccc(F)cc2)nnn1C.Cl [Example 184, N-(6-(2-(Aminomethyl)pyrimidin-5-yl)-2-methoxypyridin-3-yl)-4-(4-fluorophenyl)-1-methyl-1H-1,2,3-triazole-5-carboxamide hydrochloride]
α5-GABAAR Relative Efficacy (to DMCM), Qpatch ([3]; Conc 0.3 μM): −0.45
pKi [2]: 8.82

COc1nc(-c2ncn3c2CN(C)CC3)ccc1NC(=O)c1c(-c2ccccc2)noc1C [Example 186, N-(2-Methoxy-6-(7-methyl-5,6,7,8-tetrahydroimidazol[1,5-a]pyrazin-1-yl)pyridin-3-yl)-5-methyl-3-phenylisoxazole-4-carboxamide]
α5-GABAAR Relative Efficacy (to DMCM), Qpatch ([3]; Conc 3 μM): −0.69
pKi [2]: 7.76

COc1nc(-c2ncn3c2CNCC3)ccc1NC(=O)c1c(-c2ccccc2)noc1C [Example 187, N-(2-Methoxy-6-(5,6,7,8-tetrahydroimidazo[1,5-a]pyrazin-1-yl)pyridin-3-yl)-5-methyl-3-phenylisoxazole-4-carboxamide dihydrochloride]
α5-GABAAR Relative Efficacy (to DMCM), Qpatch ([3]; Conc 3 μM): −0.46
pKi [2]: 7.63

COc1nc(-c2cnc(NC3CNC3)nc2)ccc1NC(=O)c1c(-c2ccccc2)noc1C [Example 188, N-[6-[2-(Azetidin-3-ylamino)pyrimidin-5-yl]-2-methoxy-3-pyridyl]-5-methyl-3-phenyl-isoxazole-4-carboxamide]
α5-GABAAR Relative Efficacy (to DMCM), Qpatch ([3]; Conc 0.1 μM): −1.08
pKi [2]: 9.30

COc1nc(-c2cn(CCN)cn2)ccc1NC(=O)c1c(-c2ccccc2)noc1C [Example 200, N-(6-(1-(2-Aminoethyl)-1H-imidazol-4-yl)-2-methoxypyridin-3-yl)-5-methyl-3-phenylisoxazole-4-carboxamide dihydrochloride]
α5-GABAAR Relative Efficacy (to DMCM), Qpatch ([3]; Conc 3 μM): −0.53
pKi [2]: 7.77

Cc1onc(-c2ccc(F)cc2)c1C(=O)Nc1ccc(-n2ccnc2)nc1OC(C)C [Example 204, 3-(4-Fluorophenyl)-N-(6-imidazol-1-yl-2-isopropoxy-3-pyridyl)-5-methyl-isoxazole-4-carboxamide]
α5-GABAAR Relative Efficacy (to DMCM), Qpatch ([3]; Conc 0.1 μM): −0.39
pKi [2]: 8.96

Cc1onc(-c2ccc(F)cc2)c1C(=O)Nc1ccc(-c2cnc(CN)nc2)nc1OC(C)C.Cl [Example 205, N-(6-(2-(Aminomethyl)pyrimidin-5-yl)-2-isopropoxypyridin-3-yl)-3-(4-fluorophenyl)-5-methylisoxazole-4-carboxamide hydrochloride]
α5-GABAAR Relative Efficacy (to DMCM), Qpatch ([3]; Conc 0.1 μM): −0.61
pKi [2]: 9.40

Cc1onc(-c2ccc(F)cc2)c1C(=O)Nc1ccc(-c2cnc3n2CCN(C)C3)nc1OC(C)C.Cl [Example 209, 3-(4-Fluorophenyl)-N-(2-isopropoxy-6-(7-methyl-5,6,7,8-tetrahydroimidazo[1,2-a]pyrazin-3-yl)pyridin-3-yl)-5-methylisoxazole-4-carboxamide hydrochloride]
α5-GABAAR Relative Efficacy (to DMCM), SyncroPatch ([1]; Conc 0.1 μM): −0.60
pKi [2]: 9.52

COc1nc(-c2cnc(N)nc2)ccc1NC(=O)c1c(-c2ccc(F)cc2)noc1C [Example 213, N-[6-(2-Aminopyrimidin-5-yl)-2-methoxy-3-pyridyl]-3-(4-fluorophenyl)-5-methyl-isoxazole-4-carboxamide]
α5-GABAAR Relative Efficacy (to DMCM), SyncroPatch ([1]; Conc 0.1 μM): −0.85
pKi [2]: 9.40

Cc1onc(-c2ccccc2)c1C(=O)Nc1ccc(-c2cnc(N)nc2)nc1OC(C)C [Example 214, N-[6-(2-Aminopyrimidin-5-yl)-2-isopropoxy-3-pyridyl]-5-methyl-3-phenyl-isoxazole-4-carboxamide]
α5-GABAAR Relative Efficacy (to DMCM), SyncroPatch ([1]; Conc 0.1 μM): −0.81
pKi [2]: 9.40

Cc1onc(-c2ccccc2)c1C(=O)Nc1ccc(-c2ccc(N)nc2)nc1OC(C)C [Example 215, N-[6-(6-Amino-3-pyridyl)-2-isopropoxy-3-pyridyl]-5-methyl-3-phenyl-isoxazole-4-carboxamide]
α5-GABAAR Relative Efficacy (to DMCM), SyncroPatch ([1]; Conc 0.1 μM): −0.65
pKi [2]: 9.22

Cc1onc(-c2ccc(F)cc2)c1C(=O)Nc1ccc(-c2cnc(N)nc2)nc1OC1COC1 [Example 216, N-[6-(2-Aminopyrimidin-5-yl)-2-(oxetan-3-yloxy)-3-pyridyl]-3-(4-fluorophenyl)-5-methyl-isoxazole-4-carboxamide]
α5-GABAAR Relative Efficacy (to DMCM), SyncroPatch ([1]; Conc 0.1 μM): −0.67
pKi [2]: 8.82

COCCOc1nc(-c2cnc(N)nc2)ccc1NC(=O)c1c(-c2ccc(F)cc2)noc1C [Example 217, N-[6-(2-Aminopyrimidin-5-yl)-2-(2-methoxyethoxy)-3-pyridyl]-3-(4-fluorophenyl)-5-methyl-isoxazole-4-carboxamide]
α5-GABAAR Relative Efficacy (to DMCM), SyncroPatch ([1]; Conc 0.1 μM): −0.16
pKi [2]: 8.19

Cc1onc(-c2ccc(F)cc2)c1C(=O)Nc1ccc(-c2cnc(N)nc2)nc1OCCO [Example 218, N-[6-(2-Aminopyrimidin-5-yl)-2-(2-hydroxyethoxy)-3-pyridyl]-3-(4-fluorophenyl)-5-methyl-isoxazole-4-carboxamide]
α5-GABAAR Relative Efficacy (to DMCM), SyncroPatch ([1]; Conc 0.1 μM): −0.51
pKi [2]: 7.71

COc1nc(-c2ccc(CO)cc2)ccc1NC(=O)c1c(-c2ccccc2)noc1C [Example 219, N-[6-[4-(hydroxymethyl)phenyl]-2-methoxy-3-pyridyl]-5-methyl-3-phenyl-isoxazole-4-carboxamide]
α5-GABAAR Relative Efficacy (to DMCM), SyncroPatch ([1]; Conc 0.03 μM): −0.45
pKi [2]: 8.36

COc1nc(-c2cnoc2)ccc1NC(=O)c1c(-c2ccc(F)cc2)noc1C [Example 221, 3-(4-fluorophenyl)-N-(6-(isoxazol-4-yl)-2-methoxypyridin-3-yl)-5-methylisoxazole-4-carboxamide]
α5-GABAAR Relative Efficacy (to DMCM), SyncroPatch ([1]; Conc 0.1 μM): −1.15
pKi [2]: 9.10

COc1nc(-c2ccc(N)nc2)ccc1NC(=O)c1c(-c2ccc(F)cc2)noc1C [Example 222, N-(6′-amino-6-methoxy-[2,3′-bipyridin]-5-yl)-3-(4-fluorophenyl)-5-methylisoxazole-4-carboxamide]
α5-GABAAR Relative Efficacy (to DMCM), SyncroPatch ([1]; Conc 0.1 μM): −0.78
pKi [2]: 9.30

COc1nc(-c2cnc(N)nc2)ncc1NC(=O)c1c(-c2ccccc2)noc1C [Example 223, N-(2′-amino-4-methoxy-[2,5′-bipyrimidin]-5-yl)-5-methyl-3-phenylisoxazole-4-carboxamide]
α5-GABAAR Relative Efficacy (to DMCM), SyncroPatch ([1]; Conc 0.1 μM): −1.06
pKi [2]: 8.89
